Assay results taken from ChEMBL document CHEMBL1201862, “PubChem BioAssay data set” (2004).
Activity calls are given as the source filed them.

What was measured:
[1] = target: T1, RNA-binding protein pos-1 (Caenorhabditis elegans, UniProt G5EF15); assay: disruptors of C. elegans POS-1 RNA interaction – biochemical, fluorescence polarization, dose response (AID 1964);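 note: purified POS-1 fused to maltose binding protein made in E. coli; potency of compounds blocking POS-1 binding to fluorescent RNA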
T1 sequence (G5EF15 whole entry): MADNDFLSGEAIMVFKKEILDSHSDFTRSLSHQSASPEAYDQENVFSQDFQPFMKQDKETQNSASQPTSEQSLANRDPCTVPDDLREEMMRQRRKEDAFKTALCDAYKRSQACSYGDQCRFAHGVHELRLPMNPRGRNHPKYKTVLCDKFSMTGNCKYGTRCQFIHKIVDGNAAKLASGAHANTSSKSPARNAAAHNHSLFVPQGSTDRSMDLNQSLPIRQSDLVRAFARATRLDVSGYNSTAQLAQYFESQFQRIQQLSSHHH

[2] = target: T2, Zinc finger protein mex-5 (Caenorhabditis elegans, UniProt Q9XUB2); assay: potency of MEX-5 RNA-binding blockers – biochemical, C. elegans, fluorescence polarization, dose response (AID 1960)
T2 sequence (Q9XUB2 whole entry): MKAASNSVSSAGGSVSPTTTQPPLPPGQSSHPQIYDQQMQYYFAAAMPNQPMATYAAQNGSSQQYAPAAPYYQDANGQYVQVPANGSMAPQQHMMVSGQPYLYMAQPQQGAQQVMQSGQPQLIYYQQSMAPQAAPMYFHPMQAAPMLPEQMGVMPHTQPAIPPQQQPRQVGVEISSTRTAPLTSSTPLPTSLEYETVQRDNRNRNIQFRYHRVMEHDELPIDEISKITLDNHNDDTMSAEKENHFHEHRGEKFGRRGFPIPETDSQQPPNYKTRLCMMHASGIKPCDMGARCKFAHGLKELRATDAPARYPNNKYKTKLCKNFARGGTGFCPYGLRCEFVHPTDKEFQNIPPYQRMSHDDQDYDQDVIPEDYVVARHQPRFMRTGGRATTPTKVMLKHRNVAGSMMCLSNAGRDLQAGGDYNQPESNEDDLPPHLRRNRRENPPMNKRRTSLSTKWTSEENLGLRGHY

[3] = Luminescence Cell-Based Dose Retest to Confirm Inhibitors of Cancer Stem Cells. [Related pubchem assays (depositor defined):AID2717, AID2721]; type: functional; settings: Homo sapiens
[4] = target: FAD-linked sulfhydryl oxidase ALR (Homo sapiens, UniProt P55789); assay: ALR-catalysed DTT oxidation blockers – biochemical, H2O2 detection, luminescence, cherry-pick, dose response (AID 493248)
Cytochrome P450 1A2 = target: T3, Cytochrome P450 1A2 (Homo sapiens, UniProt P05177);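 note: PubChem cytochrome P450 panel assay, CYP1A2 panel member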
T3 sequence (P05177 whole entry): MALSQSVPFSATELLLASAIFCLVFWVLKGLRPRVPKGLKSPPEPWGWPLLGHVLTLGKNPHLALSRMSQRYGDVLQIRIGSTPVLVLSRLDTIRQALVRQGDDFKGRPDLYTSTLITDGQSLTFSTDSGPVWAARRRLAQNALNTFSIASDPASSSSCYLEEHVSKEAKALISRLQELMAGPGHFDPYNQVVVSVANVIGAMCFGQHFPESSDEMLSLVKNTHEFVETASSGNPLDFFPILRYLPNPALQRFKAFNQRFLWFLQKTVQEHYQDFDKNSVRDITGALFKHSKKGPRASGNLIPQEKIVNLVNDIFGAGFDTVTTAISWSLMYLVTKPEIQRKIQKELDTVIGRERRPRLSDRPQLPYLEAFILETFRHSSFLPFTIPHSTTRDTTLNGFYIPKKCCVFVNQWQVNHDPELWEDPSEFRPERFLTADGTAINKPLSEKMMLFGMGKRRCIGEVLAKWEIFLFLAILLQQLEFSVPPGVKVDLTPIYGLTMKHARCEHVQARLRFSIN

Cytochrome P450 2C9 = Cytochrome P450 2C9 (Homo sapiens, UniProt P11712)
[5] = NIH-3T3 fibroblast cytotoxicity, dose response, cytotoxicity control, cell-based, fluorescence, Alamar Blue, secondary assay (AID 2327); type: functional;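 note: NIH-3T3 mouse fibroblasts cultured with fluconazole at 8 µg/mL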
[6] = fluconazole-exposed Candida albicans growth modulators – fluorescence, retest, confirmation (AID 2467); type: functional, cell-based
[7] = target: T4, Corticotropin-releasing factor receptor 2/Corticotropin-releasing factor-binding protein (Homo sapiens, UniProt P24387+Q13324); assay: activators of CRF receptor 2 with binding protein – uHTS hits, confirmation (AID 602473); type: functional; settings: read-out: EC50_Mean
T4 sequence (Q13324 whole entry): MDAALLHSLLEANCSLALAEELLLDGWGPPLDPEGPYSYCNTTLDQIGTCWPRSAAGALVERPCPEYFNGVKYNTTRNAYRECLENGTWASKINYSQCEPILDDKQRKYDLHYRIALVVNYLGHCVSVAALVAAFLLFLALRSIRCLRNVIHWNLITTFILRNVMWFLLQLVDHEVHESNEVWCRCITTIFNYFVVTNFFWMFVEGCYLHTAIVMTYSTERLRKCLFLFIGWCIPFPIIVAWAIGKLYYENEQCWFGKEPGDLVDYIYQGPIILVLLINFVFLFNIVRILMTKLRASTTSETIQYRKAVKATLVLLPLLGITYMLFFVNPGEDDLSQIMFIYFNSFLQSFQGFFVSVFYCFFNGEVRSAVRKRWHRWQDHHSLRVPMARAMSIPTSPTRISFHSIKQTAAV
T4 sequence (P24387 whole entry): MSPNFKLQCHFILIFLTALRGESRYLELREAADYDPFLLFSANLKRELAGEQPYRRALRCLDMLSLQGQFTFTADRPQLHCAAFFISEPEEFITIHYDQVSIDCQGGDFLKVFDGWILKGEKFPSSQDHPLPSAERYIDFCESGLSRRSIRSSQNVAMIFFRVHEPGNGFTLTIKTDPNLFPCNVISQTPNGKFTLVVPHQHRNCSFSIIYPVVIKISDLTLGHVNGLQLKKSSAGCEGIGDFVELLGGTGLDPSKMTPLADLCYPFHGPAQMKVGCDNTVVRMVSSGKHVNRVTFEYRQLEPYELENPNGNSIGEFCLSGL

Cytochrome P450 2C19 = Cytochrome P450 2C19 (Homo sapiens, UniProt P33261); assay: Cytochrome panel assay with activity outcomes. Panel member name: p450-cyp2c19 Compounds with AC50 equal or less than 10 uM are considered active; type: functional; settings: read-out: AC50
Cytochrome P450 2D6 = Cytochrome P450 2D6 (Homo sapiens, UniProt P10635);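 note: CYP2D6 member of a cytochrome P450 panel assay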
[8] = microbe, parasite or virus in culture; type: functional; settings: Mycobacterium tuberculosis

Chain of Cytochrome P450 2C9 (P11712 whole entry): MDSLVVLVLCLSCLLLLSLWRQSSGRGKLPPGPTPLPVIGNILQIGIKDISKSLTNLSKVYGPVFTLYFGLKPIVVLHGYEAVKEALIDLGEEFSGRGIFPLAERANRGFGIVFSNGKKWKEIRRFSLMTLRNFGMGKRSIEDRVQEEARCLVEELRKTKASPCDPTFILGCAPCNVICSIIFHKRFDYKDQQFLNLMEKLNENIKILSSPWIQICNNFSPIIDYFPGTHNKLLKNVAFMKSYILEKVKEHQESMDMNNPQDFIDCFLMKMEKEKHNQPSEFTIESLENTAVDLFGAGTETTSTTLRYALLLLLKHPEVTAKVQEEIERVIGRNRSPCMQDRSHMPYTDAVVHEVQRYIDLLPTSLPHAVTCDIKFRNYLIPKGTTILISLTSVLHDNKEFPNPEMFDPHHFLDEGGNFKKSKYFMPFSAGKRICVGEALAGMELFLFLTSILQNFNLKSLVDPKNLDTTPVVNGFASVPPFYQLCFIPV
Chain of FAD-linked sulfhydryl oxidase ALR (P55789 whole entry): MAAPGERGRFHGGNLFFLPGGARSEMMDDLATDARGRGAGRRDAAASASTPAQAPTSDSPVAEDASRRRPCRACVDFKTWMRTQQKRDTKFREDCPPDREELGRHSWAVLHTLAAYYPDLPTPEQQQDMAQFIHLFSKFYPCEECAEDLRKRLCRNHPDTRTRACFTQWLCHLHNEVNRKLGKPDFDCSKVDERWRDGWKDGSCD
Chain of Cytochrome P450 2D6 (P10635 whole entry): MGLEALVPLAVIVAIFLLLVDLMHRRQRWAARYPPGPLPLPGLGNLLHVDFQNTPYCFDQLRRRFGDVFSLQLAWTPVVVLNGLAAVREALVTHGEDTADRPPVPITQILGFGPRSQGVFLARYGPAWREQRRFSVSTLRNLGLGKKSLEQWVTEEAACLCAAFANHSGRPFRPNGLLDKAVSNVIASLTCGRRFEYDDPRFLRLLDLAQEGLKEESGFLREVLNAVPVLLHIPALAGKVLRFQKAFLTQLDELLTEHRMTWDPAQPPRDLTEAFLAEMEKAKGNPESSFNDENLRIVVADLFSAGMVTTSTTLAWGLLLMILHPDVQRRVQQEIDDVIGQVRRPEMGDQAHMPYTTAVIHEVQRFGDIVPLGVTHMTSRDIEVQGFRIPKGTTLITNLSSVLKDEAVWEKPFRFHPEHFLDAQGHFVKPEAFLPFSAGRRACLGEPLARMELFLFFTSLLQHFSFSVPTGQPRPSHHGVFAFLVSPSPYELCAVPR
Chain of Cytochrome P450 2C19 (P33261 whole entry): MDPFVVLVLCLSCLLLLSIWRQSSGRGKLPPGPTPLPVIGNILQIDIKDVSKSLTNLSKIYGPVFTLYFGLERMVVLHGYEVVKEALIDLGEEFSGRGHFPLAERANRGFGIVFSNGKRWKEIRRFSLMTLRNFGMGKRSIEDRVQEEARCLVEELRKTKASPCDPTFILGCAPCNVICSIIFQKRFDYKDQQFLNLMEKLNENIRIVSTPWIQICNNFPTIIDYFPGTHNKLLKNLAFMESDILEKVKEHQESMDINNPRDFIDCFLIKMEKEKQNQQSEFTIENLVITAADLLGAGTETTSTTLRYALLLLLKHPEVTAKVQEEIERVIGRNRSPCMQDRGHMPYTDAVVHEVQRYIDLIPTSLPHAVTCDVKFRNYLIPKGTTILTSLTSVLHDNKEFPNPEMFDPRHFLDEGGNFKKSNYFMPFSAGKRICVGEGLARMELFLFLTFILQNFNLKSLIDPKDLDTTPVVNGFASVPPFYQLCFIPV

## C[C@@H]1Cc2c(O)c(O)cc(O)c2C(=O)O1
[1]
  EC50: 104 µM (active)
[2]
  EC50: 13.5 µM (active)

## c1ccc(NNC2=NCCCCC2)cc1
[3]
  AC50: 0.898 µM (active)
[4]
  AC50: 0.596 µM (active)

## CNc1nc(NCCOC23CC4CC(CC(C4)C2)C3)nc(OCC(F)(F)F)n1
Cytochrome P450 1A2
  AC50: 12.6 µM (inconclusive)
Cytochrome P450 2C9
  AC50: 15.8 µM (inconclusive)

## CCn1cc(C=C2C(=O)N(C)C(=O)N(C)C2=O)c2ccccc21
[1]
  EC50: > 300 µM (not active)
[2]
  EC50: > 300 µM (inconclusive)

## CC(=O)c1c(C)nc(-c2cccc([N+](=O)[O-])c2)n1O
[5]
  EC50: 69.2 µM (active)
[6]
  EC50: 4.84 µM (active)

## Cc1cc(=O)oc(C)c1C(=O)Nc1ccc2ncccc2c1
[7]
  EC50: 24.2 µM (active)

## COc1ccc(-c2nc3cnc(N4CCNCC4)nc3n(Cc3cccc(OC)c3)c2=O)cc1
Cytochrome P450 2C19
  AC50: 39.8 µM (inconclusive)
Cytochrome P450 2D6
  AC50: 39.8 µM (inconclusive)
Cytochrome P450 1A2
  AC50: 31.6 µM (inconclusive)

## C[C@@H](C(=O)NCc1ccc(S(C)(=O)=O)cc1)[C@H]1C[C@]1(C)[C@H](NC(=O)OCc1ccccc1)c1ccccc1
Cytochrome P450 1A2
  AC50: 12.6 µM (inconclusive)

## COc1ccc(C(=O)Nc2ccccc2C(=O)Nc2ccccc2C(=O)O)cc1
[5]
  EC50: > 160 µM (inactive)
[6]
  EC50: 3.49 µM (active)

## C[C@H]([C@@H](N)C(=O)N[C@@H](C(=O)O)[C@@H]1O[C@H](n2ccc(=O)[nH]c2=O)[C@@H](O)[C@H]1O)[C@@H](O)c1ccc(O)cn1
[5]
  EC50: > 150 µM (inactive)
[6]
  EC50: 3.67 µM (active)

## Cc1noc(C)c1S(=O)(=O)NCCN1CCN(c2ccccc2)CC1
[4]
  AC50: 3.33 µM (active)

## O=C(CSc1nc(O)c2c(C(F)(F)F)cc(-c3cccs3)nc2n1)Nc1c(F)c(F)c(F)c(F)c1F
[3]
  AC50: 1.04 µM (active)

## CC(NC(=O)CCl)c1ccc(Cl)c(Cl)c1 (stereo not drawn)
[8]
  CC50: 8.91 µM (active)

## CCCn1c(NCc2ccc3c(c2)OCO3)nc2ccccc21
[4]
  AC50: 18.9 µM (active)

## O=C1CS[C@@H](c2ccccc2Cl)c2cc(Cl)ccc2N1
Cytochrome P450 1A2
  AC50: 39.8 µM (inconclusive)

## Nc1c(-c2ccccc2)cnn1-c1cccc([N+](=O)[O-])c1
[4]
  AC50: 0.125 µM (active)
Cytochrome P450 2C9
  AC50: 28.2 µM (inconclusive)

## COc1ccccc1C1C(C(C)=O)=C(C)N=c2s/c(=C\c3cc(OC)c(OC)c(OC)c3)c(=O)n21 (stereo not drawn)
[1]
  EC50: > 300 µM (not active)
[2]
  EC50: > 300 µM (not active)

## Cc1ccc(/C=C2\C(=O)Nc3ccccc32)o1
[8]
  CC50: > 40 µM (active)

## CCn1c(CN2CCCCCC2=O)nnc1SCc1cnc(-c2ccccc2)s1
[5]
  EC50: 68 µM (inconclusive)
[6]
  EC50: 1.47 µM (active)

## CCc1ccccc1N1C(=O)c2cccc3c(N4CCOCC4)c([N+](=O)[O-])cc(c23)C1=O
Cytochrome P450 1A2
  AC50: 10 µM (inconclusive)

## CCN(CCNC(=O)C1CC(=O)N(CCc2ccccc2)C1)c1ccccc1 (stereo not drawn)
[4]
  AC50: 0.288 µM (active)

## O=C(CCl)Nc1cccn2ncnc12
[8]
  CC50: 32.6 µM (active)

## COc1c(Cl)cc(Cl)cc1CNCCNCCO
Cytochrome P450 1A2
  AC50: 28.2 µM (inconclusive)
Cytochrome P450 2C9
  AC50: 22.4 µM (inconclusive)

## COc1ccccc1NC(=O)/C(C#N)=C/c1cc([N+](=O)[O-])ccc1N1CCCC1
[1]
  EC50: 7.27 µM (inconclusive)
[2]
  EC50: 4.59 µM (inconclusive)
[7]
  EC50: 7.66 µM (active)

## COc1ccc(/C=C/C(=O)N(c2ccccn2)C2CCCCC2)cc1OC
[5]
  EC50: > 150 µM (inactive)
[6]
  EC50: > 38 µM (not active)

## CN(C)c1ccc2c3c(ccc(N(C)C)c13)C(=O)OC2
[4]
  AC50: 8.4 µM (active)

## Nc1nnc(C(=O)c2ccccc2N)s1
[1]
  EC50: 14.7 µM (active)
[2]
  EC50: 3.86 µM (active)

## COc1ccc(NC(=O)N2CCC3(CC2)CCN(C(=O)c2cnccn2)CC3)cc1
Cytochrome P450 1A2
  AC50: 10 µM (inconclusive)
Cytochrome P450 2C9
  AC50: 31.6 µM (inconclusive)

## O=C(CNS(=O)(=O)c1ccc(Br)s1)NCC1COc2ccccc2O1 (stereo not drawn)
[5]
  EC50: > 150 µM (inactive)
[6]
  EC50: > 38 µM (not active)

## CC1=NN(c2nc(-c3ccc(Cl)cc3)cs2)C(=O)C1
[3]
  AC50: 5.37 µM (active)

## Cc1c(NC(=O)c2ccc([N+](=O)[O-])o2)cccc1-c1nc2ncccc2o1
[8]
  CC50: > 40 µM (active)
[3]
  AC50: 4 µM (active)

## COc1cc(OC)cc(C(=O)N2CCCC(Nc3ccc(F)cc3)C2)c1 (stereo not drawn)
[4]
  AC50: 1.97 µM (active)

## Cc1ccc(S(=O)(=O)N2CCC(=O)N(C(COCc3ccc(C(F)(F)F)cc3)Cc3ccccc3)CC2)cc1 (stereo not drawn)
[7]
  EC50: 4.81 µM (active)

## Nc1[nH]c(N=NC(=O)c2ccc(F)cc2)c2ccccc12
[4]
  AC50: 0.24 µM (active)

## O=[N+]([O-])c1cccc(-c2nnc(S)n2-c2ccc(Br)cc2)c1
[4]
  AC50: 3.63 µM (active)

## CC1=C/C(=C(/c2ccc(O)c(C)c2)c2ccccc2C(=O)O)C=CC1=O
Cytochrome P450 1A2
  AC50: 3.16 µM (inconclusive)

## Cc1ccc(S(=O)(=O)Nc2ccccc2F)cc1C(=O)NNC(=O)c1ccccc1O
[1]
  EC50: 149 µM (inconclusive)
[2]
  EC50: 1.75 µM (inconclusive)

## COC(=O)c1ccc(-n2c(CCC(=O)O)ccc2-c2ccc(C)cc2)cc1
[1]
  EC50: > 300 µM (not active)
[2]
  EC50: > 300 µM (not active)

## Sc1nc(-c2ccccc2)c[nH]1
[4]
  AC50: 0.904 µM (active)

## O=C(CSc1nc2ccccc2[nH]1)NCCN1CCCCC1
Cytochrome P450 2C19
  AC50: 22.4 µM (inconclusive)
Cytochrome P450 2D6
  AC50: 1.78 µM (inconclusive)
Cytochrome P450 1A2
  AC50: 0.316 µM (inconclusive)

## C=CCN1C(=O)NC(=O)/C(=C/c2cc3c4c(c2)CCCN4CCC3)C1=O
[4]
  AC50: 2.31 µM (active)

## CNCC[C@H](Oc1ccccc1C)c1ccccc1
Cytochrome P450 1A2
  AC50: 15.8 µM (inconclusive)

## CCOc1nn(-c2ccc(Cl)cc2)c(O)c1/C=N/c1ccc(O)cc1
Cytochrome P450 1A2
  AC50: 3.55 µM (inconclusive)
Cytochrome P450 2C9
  AC50: 3.55 µM (inconclusive)
